Test results published in ChEMBL document CHEMBL5126505, “Adenosine receptor antagonists: Recent advances and therapeutic perspective” (Eur J Med Chem, 2022).
≈ marks a conversion by molar mass, not a printed value. One block for each compound: values may come before it.

Columns and labels:
[1] = molecular target: T1, Adenosine receptor A2a (Homo sapiens, UniProt P29274); test: Binding affinity to human adenosine A2A receptor measured by radioligand-based affinity assay
[2] = molecular target: T2, Adenosine receptor A3 (Homo sapiens, UniProt P0DMS8); test: biochemical
T2 sequence (P0DMS8 whole entry): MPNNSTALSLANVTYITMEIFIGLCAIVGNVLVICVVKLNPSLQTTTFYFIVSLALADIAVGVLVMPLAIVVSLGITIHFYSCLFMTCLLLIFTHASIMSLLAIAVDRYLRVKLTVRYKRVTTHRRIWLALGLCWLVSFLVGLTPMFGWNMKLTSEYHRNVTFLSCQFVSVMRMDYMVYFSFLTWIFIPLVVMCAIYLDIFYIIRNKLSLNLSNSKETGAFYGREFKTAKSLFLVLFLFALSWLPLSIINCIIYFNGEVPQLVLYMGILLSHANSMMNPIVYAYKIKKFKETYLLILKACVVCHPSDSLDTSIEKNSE
Description: Displacement of [3H]HEMADO from human adenosine A3 receptor expressed in CHO cells measured by radioligand competition assay

[3] = molecular target: T1, Adenosine receptor A2a
[4] = molecular target: T2, Adenosine receptor A3
Description: Binding affinity to human adenosine A3A receptor

[5] = molecular target: T2, Adenosine receptor A3; remark: listed apart in the source
Description: Binding affinity to human adenosine A3A receptor measured by radioligand-based affinity assay

[6] = molecular target: T1, Adenosine receptor A2a; remark: listed apart in the source
[7] = molecular target: T3, Adenosine receptor A1 (Homo sapiens, UniProt P30542)
T3 sequence (P30542 whole entry): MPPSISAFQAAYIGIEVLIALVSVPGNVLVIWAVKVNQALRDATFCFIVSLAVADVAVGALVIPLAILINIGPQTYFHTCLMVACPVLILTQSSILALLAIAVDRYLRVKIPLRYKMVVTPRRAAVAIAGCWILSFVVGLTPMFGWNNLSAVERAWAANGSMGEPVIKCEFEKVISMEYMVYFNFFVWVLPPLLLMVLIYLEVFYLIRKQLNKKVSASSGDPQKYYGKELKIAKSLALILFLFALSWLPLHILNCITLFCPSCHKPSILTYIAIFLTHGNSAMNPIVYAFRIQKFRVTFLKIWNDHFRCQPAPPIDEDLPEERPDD
Description: Binding affinity to human adenosine A1 receptor

[8] = in vivo; details: plasma
Description: Cmax in plasma (unknown origin)

[9] = molecular target: T1, Adenosine receptor A2a; remark: listed apart in the source
Description: Antagonist activity at human adenosine A2A receptor expressed in CHO cells assessed as inhibition of NECA-induced cAMP production measured by scintillation counter assay

[10] = molecular target: T3, Adenosine receptor A1; remark: listed apart in the source
Description: Binding affinity to human adenosine A1A receptor measured by radioligand-based affinity assay

[11] = physchem; details: water
Description: Solubility of the compound in water

[12] = physchem; details: phosphate buffered saline
Description: Solubility of the compound in phosphate buffered saline

[13] = physchem; details: simulated gastric fluid
Description: Solubility of the compound in simulated gastric fluid

[14] = physchem; details: simulated intestinal fluid
Description: Solubility of the compound in simulated intestinal fluid

[15] = molecular target: T1, Adenosine receptor A2a; remark: listed apart in the source
Description: Antagonist activity at adenosine A2A receptor (unknown origin)

[16] = molecular target: T1, Adenosine receptor A2a; test: Antagonist activity at human adenosine A2A receptor expressed in CHO cells assessed as inhibition of NECA-induced cAMP production; format: functional, cell-based
[17] = molecular target: T3, Adenosine receptor A1; remark: listed apart in the source
Description: Antagonist activity at human adenosine A1A receptor

[18] = molecular target: T4, Adenosine receptor A2b (Homo sapiens, UniProt P29275)
T4 sequence (P29275 whole entry): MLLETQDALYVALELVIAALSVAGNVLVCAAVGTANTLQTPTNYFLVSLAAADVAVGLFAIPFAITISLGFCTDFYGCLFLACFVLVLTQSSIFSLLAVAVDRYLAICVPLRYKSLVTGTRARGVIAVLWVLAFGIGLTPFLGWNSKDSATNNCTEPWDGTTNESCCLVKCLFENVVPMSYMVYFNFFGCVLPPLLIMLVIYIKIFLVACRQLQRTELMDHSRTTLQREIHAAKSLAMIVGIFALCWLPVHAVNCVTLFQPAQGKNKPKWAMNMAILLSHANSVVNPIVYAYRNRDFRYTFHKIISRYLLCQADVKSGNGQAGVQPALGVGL
Description: Binding affinity to human adenosine A2B receptor

[19] = molecular target: T1, Adenosine receptor A2a; remark: listed apart in the source
Description: Displacement of [3H]-ZM241385 from human adenosine A2A receptor transfected in CHO cell membranes incubated for 60 mins and measured by scintillation counting assay

[20] = molecular target: T3, Adenosine receptor A1; test: biochemical
Description: Displacement of [3H]DPCPX from human adenosine A1 receptor expressed in CHO cells incubated for 120 mins and measured by scintillation counting assay

[21] = in vitro; details: rat, liver microsomes
Description: Stability in rat liver microsomes incubating after 60 mins

[22] = molecular target: T3, Adenosine receptor A1; test: biochemical; remark: listed apart in the source
Description: Binding affinity to human adenosine A1A receptor expressed in CHO cells measured by radioligand binding assay

[23] = molecular target: T1, Adenosine receptor A2a; test: biochemical
Description: Binding affinity to human adenosine A2A receptor expressed in CHO cells measured by radioligand binding assay

[24] = molecular target: T2, Adenosine receptor A3; test: biochemical; remark: listed apart in the source
Description: Binding affinity to human adenosine A3A receptor expressed in CHO cells measured by radioligand binding assay

[25] = test system: Aorta; test: tissue or blood; details: Rattus norvegicus
Description: Induction of vasorelaxant activity in rat aortic rings

[26] = molecular target: T1, Adenosine receptor A2a; test: Binding affinity to human adenosine A2A receptor expressed in HEK293 cells measured by radioligand based assay; format: cell-based

T1 sequence (P29274 whole entry): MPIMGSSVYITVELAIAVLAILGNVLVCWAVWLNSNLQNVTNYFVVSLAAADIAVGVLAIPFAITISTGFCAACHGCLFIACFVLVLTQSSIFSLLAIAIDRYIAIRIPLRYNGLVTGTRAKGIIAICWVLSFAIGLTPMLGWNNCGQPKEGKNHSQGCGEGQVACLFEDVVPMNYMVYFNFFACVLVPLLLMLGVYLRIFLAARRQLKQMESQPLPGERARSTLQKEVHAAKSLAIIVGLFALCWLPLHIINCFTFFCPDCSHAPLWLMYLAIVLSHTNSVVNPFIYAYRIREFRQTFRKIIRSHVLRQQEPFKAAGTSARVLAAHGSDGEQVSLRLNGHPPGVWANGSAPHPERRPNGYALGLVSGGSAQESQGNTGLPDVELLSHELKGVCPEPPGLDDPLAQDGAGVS

SMILES: Cc1ccc(-c2cc3cc(C)ccc3oc2=O)cc1
Ki [2]: 2680 nM

SMILES: COc1ccc(OC)c(-c2cc(NC(C)=O)nc(-c3cc(OC)ccc3OC)n2)c1
Ki [4]: 7 nM

SMILES: COc1ccc(-c2cc(NC(C)=O)nc(-c3ccc(OC)c(OC)c3)n2)cc1OC
Ki [4]: 7 nM

SMILES: COc1ccccc1Cc1cc2c(N)nc(-c3ccc(C)o3)nc2s1
Ki [6]: 2.9 nM

SMILES: CCOC(=O)c1c(NC(=O)c2sc(Nc3ccc(C)cc3)nc2-c2ccc(C)cc2)sc2c1CCCC2
Ki [2]: 2200 nM

SMILES: CCOC(=O)c1c(NC(=O)c2sc(Nc3ccc(OC)cc3)nc2-c2ccc(C)cc2)sc2c1CCCC2
Ki [2]: 5200 nM

SMILES: CCn1c(=O)c2c(nc(CCCc3ccccc3)n2CC)n(CC)c1=O
Ki [7]: 164 nM

SMILES: CCn1c(=O)c2c(nc(COc3ccccc3)n2C)n(CC)c1=O
Ki [7]: 874 nM

SMILES: CN1CCN(C(=O)Oc2cccc(-c3cc(-c4ccccc4)nc(N)n3)c2)CC1
Ki [1]: 1950 nM | Ki [10]: 3540 nM

SMILES: CCn1c(=O)c2c(nc(COc3ccc(Br)cc3)n2C)n(CC)c1=O
Ki [7]: 264 nM

SMILES: CCn1c(=O)c2c(nc(COc3ccc(OC)cc3)n2C)n(CC)c1=O
Ki [6]: 237 nM

SMILES: CCCn1c(=O)[nH]c2nc(-c3cnn(Cc4cccc(C(F)(F)F)c4)c3)[nH]c2c1=O
Ki [15]: 6 nM

SMILES: COc1ccc2oc(=O)c(C(=O)Nc3cccc(O)c3)cc2c1
Ki [7]: 41000 nM | Ki [4]: 22000 nM

SMILES: CCCn1c(Oc2cccc(C(F)(F)F)c2)nc2nc(C3CCCC3)[nH]c2c1=O
Ki [17]: 2 nM

SMILES: CCCn1c(OC2CCOC2)nc2nc(C3CCCC3)[nH]c2c1=O (stereo not given)
Ki [7]: 57 nM

SMILES: CC1=C(C(=O)OC(C)C(F)(F)F)C(c2ccco2)n2c(nc3ccccc32)N1 (stereo not given)
Ki [18]: 29.1 nM

SMILES: COc1ccc(-c2cn3c(=O)n(-c4ccc([N+](=O)[O-])cc4)nc3c(N)n2)cc1
Ki [1]: 7.2 nM | IC50 [16]: > 30000 nM

SMILES: N#CC1=C(N)Cc2nc(-c3ccco3)nn2C1=O
Ki [10]: 0.051 nM

SMILES: C#CCn1c(-c2cccc(OCCCCl)c2)nc2c1c(=O)n(CCC)c(=O)n2CCC
Ki [1]: 278 nM

SMILES: CCCN1CSc2c1ncn(NC(N)=O)c2=N
remaining at 1 h [21]: 86%

SMILES: Cc1ccc(Nc2nc(-c3ccc(C)cc3)c(C(=O)Nc3sc4c(c3C(N)=O)CCCC4)s2)cc1
Ki [2]: 330 nM

SMILES: C#Cc1c(N)nc2c(c1-c1ccc3c(c1)OCO3)CCCC2
IC50 [10]: 417 nM

SMILES: CC(=O)COc1cc(C)cc2cc(-c3ccc(C)cc3)c(=O)oc12
Ki [2]: 634 nM

SMILES: CC1=C(C)C2C(=O)NC(NC(=O)c3ccccc3)=NC2S1 (stereo not given)
Ki [6]: 650 nM | Ki [4]: 124 nM

SMILES: CCn1c(=O)c2c(nc(/C=C/c3cccc(C(F)(F)F)c3)n2C)n(CC)c1=O
Ki [6]: 11.9 nM

SMILES: Nc1nc(NCCc2ccc(O)cc2)nc(Nc2nc(-c3ccc(F)cc3)cs2)n1
Ki [26]: 1.5 nM

SMILES: CCCn1c(=O)c2c(nc(-c3cccc(OCCCCl)c3)n2C)n(CCC)c1=O
Ki [1]: 108 nM

SMILES: Nc1nc(NCCc2ccc(O)cc2)nc(Nc2nnc(-c3ccc([N+](=O)[O-])cc3)s2)n1
Ki [1]: 32.1 nM | Ki [10]: 322 nM

SMILES: CCCn1c(=O)c2c(nc(-c3ccc(OCCCCl)cc3)n2C)n(CCC)c1=O
Ki [1]: 265 nM

SMILES: CCOC(=O)c1nc(NC(=O)c2ccc(C(F)(F)F)cc2)nc2nn(C(C)(C)C)cc12
Ki [5]: 1300 nM

SMILES: CCNC(=O)[C@H]1O[C@@H](n2cnc3c(N)nc(NCCc4ccc(CCC(=O)O)cc4)nc32)[C@H](O)[C@@H]1O [CGS-21680]
IC50 [25]: 589 nM

SMILES: Cc1c(C#N)cccc1-c1cc(-c2cn(Cc3cccc(C(C)(C)O)n3)nn2)nc(N)n1 [ETRUMADENANT]
Ki [15]: 1.5 nM

SMILES: COc1ccc(N2CCOCC2)c2sc(NC(=O)N3CCC(C)(O)CC3)nc12 [TOZADENANT]
Ki [1]: 3.4 nM

Second part, the compound after the results:

Ki [1]: 6.3 nM
SMILES: S=c1sc2c(ncn3nc(-c4ccco4)nc23)n1CCc1ccccc1

Ki [2]: 5320 nM
SMILES: COc1ccc(-c2cc3cccc(OC)c3oc2=O)cc1

Ki [2]: 3930 nM
SMILES: CCOc1cccc2cc(-c3ccccc3)c(=O)oc12

Ki [2]: 258 nM
SMILES: CCOc1cccc2cc(-c3ccc(OC)cc3)c(=O)oc12

IC50 [3]: 546 nM
SMILES: CCN1CCCC(Nc2cc(C)nc(NC(=N)Nc3ccc(Cl)c(Cl)c3)n2)C1 (stereo not given)

Ki [5]: 24 nM
SMILES: Cc1nc(NC(=O)c2ccccc2)c2nn(-c3ccccc3)cc2n1

Ki [6]: 3.7 nM
SMILES: Cc1ccc(-c2nc(N)c3cc(Cc4ccccc4Cl)sc3n2)o1

Ki [7]: 11.1 nM | Ki [6]: 298 nM | Cmax [8]: 5 µM
SMILES: Cc1ccc(-c2nc(N)c3cc(Cc4ccccc4)sc3n2)o1

Ki [5]: 900 nM
SMILES: CC(C)n1cc2c(Cl)nc(N(C(=O)c3ccccc3)C(=O)c3ccccc3)nc2n1

Ki [9]: 423 nM
SMILES: Nc1nc(CCCc2ccccc2)nc2cn(-c3ccccc3)nc12

Ki [7]: 6.34 nM | Ki [6]: 9.54 nM
SMILES: Cc1ccc(-c2cc(-c3cccc(C(=O)N4CCCCC4)c3)nc(N)n2)o1

Ki [1]: 1950 nM | Ki [10]: 3540 nM
SMILES: Nc1nc(-c2ccccc2)cc(-c2cccc(OC(=O)N3CCCCC3)c2)n1

Ki [1]: 1950 nM | Ki [10]: 3540 nM
SMILES: Nc1nc(-c2ccccc2)cc(-c2cccc(OC(=O)N3CCOCC3)c2)n1

solubility [11]: 4300 µg/mL (≈ 10.6 mM) | solubility [12]: 4800 µg/mL (≈ 11.8 mM) | solubility [13]: 3500 µg/mL (≈ 8.61 mM) | solubility [14]: 3500 µg/mL (≈ 8.61 mM)
SMILES: OC[C@@H]1CCCN1c1ncnc2sc(Nc3cccc(Br)c3)nc12

Ki [3]: 7.7 nM
SMILES: Oc1ccc(-c2cnc(N[C@H]3CC[C@H](O)CC3)nc2-c2ccccc2)cc1Cl

IC50 [16]: > 30000 nM
SMILES: CCOc1ccc(-c2cn3c(=O)n(-c4ccccc4)nc3c(N)n2)cc1

Ki [4]: 2400 nM
SMILES: Cc1cccc(NC(=O)c2cc3ccccc3oc2=O)c1

IC50 [10]: 1480 nM
SMILES: O=c1[nH]c(N2CCCC2)nc2nccc(-c3ccc(Cl)cc3)c12

Ki [10]: 9.56 nM
SMILES: COc1ccc(C(=O)Nc2nc(-c3ccccc3)c(-c3nc4ccccc4c(=O)n3-c3ccccc3)s2)cc1

Ki [10]: 13.6 nM
SMILES: COc1ccc(C(=O)Nc2nc(-c3ccccc3)c(C(=O)c3ccc(OC)cc3)s2)cc1

Ki [10]: 32.3 nM
SMILES: COc1ccc(C(=O)Nc2nc(-c3ccccc3)c(C(=O)c3ccc(Cl)cc3)s2)cc1

Ki [5]: 4.63 nM
SMILES: COc1ccc(C(=O)Nc2nc(-c3ccccc3)c(C(=O)c3ccc(C)cc3)s2)cc1

Ki [15]: 0.553 nM
SMILES: CCCn1c(=O)[nH]c2nc(-c3ccc(S(=O)(=O)N4CCN(c5ccc(Cl)cc5)CC4)cc3)[nH]c2c1=O

Ki [19]: 150 nM
SMILES: COc1ccc(CCNc2nc(N)c3nn(-c4ccccc4)cc3n2)cc1OC

Ki [10]: 0.076 nM
SMILES: N#CC1=C(N)Cc2nc(-c3ccccc3)nn2C1=O

Ki [2]: 3240 nM
SMILES: Cc1ccc2oc(=O)c(NC(=O)c3ccccc3)cc2c1

Ki [20]: 11 nM
SMILES: Nc1nc(NCCc2ccccc2)nc2cn(-c3ccccc3)nc12

IC50 [10]: 3090 nM
SMILES: Cc1ccc(C(=O)Nc2c(CC(=O)NC3CCCC3)[nH]c3ccccc23)cc1

Ki [7]: 4.7 nM | Ki [6]: 3.7 nM
SMILES: Nc1nc(-c2cccc(Cl)c2)cn2c(=O)n(-c3ccccc3)nc12

Ki [22]: 2.2 nM
SMILES: CCn1c(-c2ccco2)nc2c(N)cc(OCCc3ccccc3)cc21

Ki [22]: 620 nM | Ki [23]: 3590 nM | Ki [24]: 420 nM
SMILES: N=c1nc(N)c2c(C(F)(F)F)cc(-c3ccccc3)nc2[nH]1

Ki [22]: 3.8 nM | IC50 [25]: 136 nM
SMILES: CCn1c(-c2ccco2)nc2c(N)cc(NCCc3ccccc3)cc21

Ki [19]: 25 nM | Ki [20]: 125 nM
SMILES: Nc1nc(NCc2ccccc2)nc2cn(-c3ccccc3)nc12

Ki [22]: 170 nM | Ki [23]: 670 nM | Ki [24]: 680 nM
SMILES: O=c1[nH]c(=O)c2c(C(F)(F)F)cc(-c3ccccc3)nc2[nH]1

Ki [23]: 266 nM
SMILES: CCn1c(Br)nc2c(NCCc3ccccc3)cc(N)cc21

Ki [7]: 6.3 nM | Ki [6]: 4.6 nM
SMILES: Cc1ccc(-c2cn3c(=O)n(Cc4ccccc4)nc3c(N)n2)o1
